Experimental data: patent US8399490B2, “Insecticides” (Syngenta Crop Protection LLC, priority 2007, dated 2013)
Where two headings read alike, the source gives them in different places.

Experiments:
[1] = test system: Spodoptera littoralis (Egyptian cotton leafworm); assay: Example B1: Activity against Spodoptera littoralis (larvicide, feeding/residual contact activity, preventive), cotton leaf discs; format: in vivo; settings: foliar, 72 h, L1 larvae on cotton leaf discs, 3 days after treatment
Source text: Activity Against Spodoptera littoralis (Egyptian Cotton Leafworm)
(Larvicide, Feeding/Residual Contact Activity, Preventive)
The samples are checked for mortality, repellent effect, feeding behaviour, and growth regulation 3 days after treatment. In this test, compounds listed in Table P above show good activity. In particular compounds P.1, P.2, P.3, P.4, P.5, P.6, P.7, P.8, P.9, P.10, P.11, P.12, P.13, P.14, P.15, P.16, P.17, P.18, P.19, P.20, P.21, P.22, P.23, P.24, P.25, P.26, P.27, P.28, P.29, P.30, P.31, P.32, P.33, P.34, P.35, P.36, P.37, P.38, P.39, P.40, P.41, P.42, P.43, P.44, P.46, P.50, P.51, P.52, P.55, P.56, P.57, P.58, P.59, P.60, P61, P.66, P.67, P.68, P.69, P.70, P.71, P.72, P.73, P.74, P.75, P.76, P.77, P.78, P.83, P.84, P.87 and P.88 show an activity of over 80% at a concentration of 400 ppm.

[2] = test system: Heliothis virescens (tobacco budworm); assay: Example B2: Activity against Heliothis virescens (ovo-larvicide, feeding/contact activity, curative), eggs on artificial diet; format: in vivo; settings: 96 h, 4 days incubation
Method: Activity Against Heliothis virescens (Tobacco Budworm) (Ovo-Larvicide, Feeding/Contact Activity, Curative) Eggs (0-24 h old) are placed in 24-well microtiter plate on artificial diet and treated with test solutions by pipetting. After an incubation period of 4 days, samples are checked for egg mortality, larval mortality, and growth regulation.

[3] = test system: Plutella xylostella (diamond back moth); assay: Example B3: Plutella xylostella (larvicide, feeding/residual contact activity, preventive), artificial diet MTP; format: in vivo; settings: 120 h, L2 larvae on artificial diet, 5 days incubation
Method: (§1) Plutella xylostella (Diamond Back Moth) (Larvicide, Feeding/Residual Contact Activity, Preventive) 24-well microtiter plate (MTP) with artificial diet is treated with test solutions by pipetting. After drying, the MTP's are infested with larvae (L2) (10-15 per well). After an incubation period of 5 days, samples are checked for larval mortality, antifeedant and growth regulation.

[4] = test system: Diabrotica balteata (corn root worm); assay: Example B4: Diabrotica balteata (larvicide, feeding/residual contact activity, preventive), artificial diet MTP; format: in vivo; settings: 120 h, L2 larvae on artificial diet, 5 days incubation
Method: as §1, with “Diabrotica balteata (Corn Root Worm)” for “Plutella xylostella (Diamond Back Moth)”, “(6-10” for “(10-15”

[5] = test system: Myzus persicae (green peach aphid); settings: foliar, 144 h, read-out: activity
[6] = test system: Myzus persicae (green peach aphid); assay: Example B6: Activity against Myzus persicae (mixed population, systemic/feeding activity, curative), pea seedling roots in test solution; settings: 144 h, read-out: activity

Measured: pest or weed control at 400 ppm

CSCC(C)(C)NC(=O)c1c(NC(=O)c2cc(Br)nn2-c2ncccc2Cl)c(C)cc2c1OC(F)(F)O2 [P.27]
> 80%: all assays above

CC(C)NC(=O)c1c(NC(=O)c2cc(Cl)nn2-c2ncccc2Cl)c(Cl)cc2c1OC(F)(F)O2 [P.23]
> 80%: all assays above

CNC(=O)c1c(NC(=O)c2cc(Cl)nn2-c2ncccc2Cl)c(Cl)cc2c1OC(F)(F)O2 [P.22]
> 80%: all assays above

CSCC(C)(C)NC(=O)c1c(NC(=O)c2cc(Br)nn2-c2ncccc2Cl)c(Cl)cc2c1OC(F)(F)O2 [P.20]
> 80%: all assays above

O=C(NC1(C2CC2)CC1)c1c(NC(=O)c2cc(Br)nn2-c2ncccc2Cl)c(Cl)cc2c1OC(F)(F)O2 [P.21]
not listed: [6]
> 80%: all other assays above

CNC(=O)c1c(NC(=O)c2cc(C(F)F)nn2-c2ncccc2Cl)c(Br)cc2c1OC(C)C2 (centres unmarked) [P.83]
not listed: [6]
> 80%: all other assays above

CSCC(C)(C)NC(=O)c1c(NC(=O)c2cc(Cl)nn2-c2ncccc2Cl)c(Cl)cc2c1OC(F)(F)O2 [P.24]
> 80%: all assays above

CCNC(=O)c1c(NC(=O)c2cc(C(F)F)nn2-c2ncccc2Cl)c(Cl)cc2c1OCO2 [P.5]
> 80%: [1] | [2] | [3] | [5]

CNC(=O)c1c(NC(=O)c2cc(Br)nn2-c2ncccc2Cl)c(Br)cc2c1S(=O)(=O)C(C)C2 (centres unmarked) [P.88]
> 80%: [1] | [2] | [3] | [5]

CNC(=O)c1c(NC(=O)c2cc(Cl)nn2-c2ncccc2Cl)c(C)cc2c1OC(F)(F)O2 [P.29]
not listed: [5]
> 80%: all other assays above

COc1cc(C(=O)Nc2c(Cl)cc3c(c2C(=O)NC(C)C)C(O)CC3)n(-c2ncccc2Cl)n1 (centres unmarked) [P.66]
> 80%: [1] | [2] | [3] | [6]

CCNC(=O)c1c(NC(=O)c2cc(OC)nn2-c2ncccc2Cl)c(C)cc2c1OCO2 [P.76]
> 80%: [1] | [2] | [3] | [6]

Cc1cc2c(c(C(=O)NC3(C4CC4)CC3)c1NC(=O)c1cc(C(F)F)nn1-c1ncccc1Cl)OCO2 [P.71]
> 80%: [1] | [2] | [3] | [5]

COc1cc(C(=O)Nc2c(C)cc3c(c2C(=O)NC(C)C)OCO3)n(-c2ncccc2Cl)n1 [P.77]
> 80%: [1] | [2] | [3] | [6]

CNC(=O)c1c(NC(=O)c2cc(OC)nn2-c2ncccc2Cl)c(Br)cc2c1OC(F)(F)O2 [P.39]
> 80%: [1] | [2] | [3] | [4]

Cc1cc2c(c(C(=O)NC(C)(C)C)c1NC(=O)c1cc(C(F)(F)F)nn1-c1ncccc1Cl)OCO2 [P.70]
> 80%: [1] | [2] | [3] | [4]

Cc1cc2c(c(C(=O)NC(C)C)c1NC(=O)c1cc(Br)nn1-c1ncccc1Cl)OC(F)(F)O2 [P.14]
not listed: [4]
> 80%: all other assays above

COc1cc(C(=O)Nc2c(Br)cc3c(c2C(=O)NC(C)C)OC(F)(F)O3)n(-c2ncccc2Cl)n1 [P.40]
> 80%: [1] | [2] | [3] | [4]

CCNC(=O)c1c(NC(=O)c2cc(Cl)nn2-c2ncccc2Cl)c(Cl)cc2c1OCO2 [P.8]
> 80%: [1] | [2] | [3] | [4]

Cc1cc2c(c(C(=O)NC(C)C)c1NC(=O)c1cc(C(F)F)nn1-c1ncccc1Cl)OCO2 [P.74]
not listed: [5]
> 80%: all other assays above

CNC(=O)c1c(NC(=O)c2cc(OC)nn2-c2ncccc2Cl)c(Cl)cc2c1OC(F)(F)O2 [P.37]
> 80%: [1] | [2] | [3] | [4]

O=C(NC1(C2CC2)CC1)c1c(NC(=O)c2cc(Br)nn2-c2ncccc2Cl)c(Cl)cc2c1OCO2 [P.11]
> 80%: [1] | [2] | [3] | [4]

O=C(NC1(C2CC2)CC1)c1c(NC(=O)c2cc(Cl)nn2-c2ncccc2Cl)c(Cl)cc2c1OC(F)(F)O2 [P.25]
> 80%: [1] | [2] | [3] | [4]

Cc1cc2c(c(C(=O)NC(C)C)c1NC(=O)c1cc(C(F)(F)F)nn1-c1ncccc1Cl)OCO2 [P.67, 5-methyl-6-{[2-(3-chloro-pyridin-2-yl)-5-trifluoromethyl-2H-pyrazole-3-carbonyl]-amino}-2,4-dioxolane-benzoic acid isopropylamide]
> 80%: [1] | [2] | [3] | [4]

Cc1cc2c(c(C(=O)NC(C)C)c1NC(=O)c1cc(C(F)(F)F)nn1-c1ncccc1Cl)OC(F)(F)O2 [P.44]
> 80%: [1] | [2] | [3] | [4]

Cc1cc2c(c(C(=O)NC(C)C)c1NC(=O)c1cc(Br)nn1-c1ncccc1Cl)OCO2 [P.75]
> 80%: [1] | [2] | [3] | [4]

CC(C)NC(=O)c1c(NC(=O)c2cc(C(F)F)nn2-c2ncccc2Cl)c(Cl)cc2c1OCO2 [P.4]
> 80%: [1] | [2] | [3] | [4]

COc1cc(C(=O)Nc2c(Cl)cc3c(c2C(=O)NC(C)C)OCO3)n(-c2ncccc2Cl)n1 [P.12]
> 80%: [1] | [2] | [3] | [5]

CCNC(=O)c1c(NC(=O)c2cc(C(F)(F)F)nn2-c2ncccc2Cl)c(Cl)cc2c1OCO2 [P.2]
> 80%: [1] | [2] | [3] | [4]
